Test results: PubChem BioAssay (NCI)
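Growth conditions: 96-well plates. Treatment: test compound, 48 hours, 5 concentrations. Analysis: linear interpolation between bracketing concentrations; unreached endpoints set to highest concentration. GI50 = concentration required for 50% inhibition of growth. TGI: total growth inhibition.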

Assays:
Experiment in all cases: NCI tumour cell line growth inhibition, 48 h
[1] = test system: SW-620 colon
[2] = test system: K-562 leukemia
[3] = test system: HT29 colon
[4] = test system: MDA-MB-435
[5] = test system: NCI-H23 lung
[6] = test system: HCC-2998 colon
[7] = test system: HS 578T breast
[8] = test system: OVCAR-4 ovarian
[9] = test system: A549 NSCLC
[10] = test system: SN12C renal
[11] = test system: ACHN renal
[12] = test system: SNB-19 CNS
[13] = test system: UACC-257 melanoma
[14] = test system: OVCAR-3 ovarian
[15] = test system: MOLT-4 leukemia
[16] = test system: NCI-H522 lung
[17] = test system: SF-268 CNS
[18] = test system: NCI-H226 lung
[19] = test system: UO-31 renal
[20] = test system: RXF 393 renal
[21] = test system: NCI-H460 lung
[22] = test system: SK-MEL-28 melanoma
[23] = test system: TK-10 renal
[24] = test system: HOP-92 NSCLC
[25] = test system: M14 melanoma
[26] = test system: SK-MEL-5 melanoma
[27] = test system: U251 CNS
[28] = test system: LOX IMVI melanoma
[29] = test system: MALME-3M melanoma
[30] = test system: HCT-15 colon
[31] = test system: SF-295 CNS
[32] = test system: OVCAR-8 ovarian
[33] = test system: OVCAR-5 ovarian
[34] = test system: UACC-62 melanoma
[35] = test system: HOP-62 NSCLC
[36] = test system: COLO 205 colon
[37] = test system: EKVX NSCLC
[38] = test system: SK-OV-3 ovarian
[39] = test system: BT-549 breast
[40] = test system: RPMI-8226 leukemia
[41] = test system: DU-145 prostate
[42] = test system: SK-MEL-2 melanoma
[43] = test system: MCF7 breast
[44] = test system: KM12 colon
[45] = test system: NCI/ADR-RES ovarian
[46] = test system: CAKI-1 renal
[47] = test system: PC-3 prostate
[48] = test system: MDA-MB-231 breast
[49] = test system: T-47D breast
[50] = test system: HCT-116 colon
[51] = test system: SNB-75 CNS
[52] = test system: IGROV1 ovarian
[53] = test system: HL-60(TB) leukemia
[54] = test system: CCRF-CEM leukemia
[55] = test system: SF-539 CNS
[56] = test system: SR leukemia
[57] = test system: A498 renal
[58] = test system: 786-0 renal

## Nc1ccc(-n2c(=O)oc3ccc(Cl)cc3c2=O)c(Cl)c1
[1]
  GI50: 161 nM
  TGI: 8180 nM
[2]
  GI50: 108 nM
  TGI: > 100000 nM
[3]
  GI50: 1170 nM
  TGI: > 35300 nM
[4]
  GI50: 113 nM
  TGI: 883 nM
[5]
  GI50: 92.1 nM
  TGI: 486 nM
[6]
  GI50: 377 nM
  TGI: 2650 nM
[7]
  GI50: 81 nM
  TGI: 562 nM
[8]
  GI50: 111 nM
  TGI: > 94800 nM
[9]
  GI50: 234 nM
  TGI: > 38700 nM
[10]
  GI50: 97.1 nM
  TGI: 1070 nM
[11]
  GI50: 169 nM
  TGI: 4410 nM
[12]
  GI50: 122 nM
  TGI: > 100000 nM
[13]
  GI50: 74.1 nM
  TGI: 433 nM
[14]
  GI50: 107 nM
  TGI: 7210 nM
[15]
  GI50: 368 nM
  TGI: 2320 nM
[16]
  GI50: 74.1 nM
  TGI: 588 nM
[17]
  GI50: 108 nM
  TGI: 2330 nM
[18]
  GI50: 154 nM
  TGI: 787 nM
[19]
  GI50: 87.2 nM
  TGI: 533 nM
[20]
  GI50: 83.8 nM
  TGI: 293 nM
[21]
  GI50: 109 nM
  TGI: 3740 nM
[22]
  GI50: 100 nM
  TGI: 730 nM
[23]
  GI50: 187 nM
  TGI: 20400 nM
[24]
  GI50: 28.1 nM
  TGI: 168 nM
[25]
  GI50: 104 nM
  TGI: 680 nM
[26]
  GI50: 48 nM
  TGI: 136 nM
[27]
  GI50: 118 nM
  TGI: > 34500 nM
[28]
  GI50: 128 nM
  TGI: 946 nM
[29]
  GI50: 83.8 nM
  TGI: 362 nM
[30]
  GI50: 138 nM
  TGI: 21600 nM
[31]
  GI50: 1070 nM
  TGI: 2800 nM
[32]
  GI50: 147 nM
  TGI: 5530 nM
[33]
  GI50: 467 nM
  TGI: > 100000 nM
[34]
  GI50: 52.7 nM
  TGI: 220 nM
[35]
  GI50: 202 nM
  TGI: 1590 nM
[36]
  GI50: 2970 nM
  TGI: 8260 nM
[37]
  GI50: 213 nM
  TGI: > 56300 nM
[38]
  GI50: 93.4 nM
  TGI: 1600 nM
[39]
  GI50: 84.4 nM
  TGI: 338 nM
[40]
  GI50: 55.8 nM
  TGI: 256 nM
[41]
  GI50: 202 nM
  TGI: 14000 nM
[42]
  GI50: 207 nM
  TGI: 807 nM
[43]
  GI50: 262 nM
  TGI: > 31800 nM
[44]
  GI50: 255 nM
  TGI: 908 nM
[45]
  GI50: 172 nM
  TGI: 1030 nM
[46]
  GI50: 77 nM
  TGI: 479 nM
[47]
  GI50: 264 nM
  TGI: 9590 nM
[48]
  GI50: 111 nM
  TGI: 1680 nM
[49]
  GI50: 67.9 nM
  TGI: 263 nM
[50]
  GI50: 108 nM
  TGI: 520 nM
[51]
  GI50: 89.4 nM
  TGI: 410 nM
[52]
  GI50: 140 nM
  TGI: 36700 nM
[53]
  GI50: 49.9 nM
  TGI: 267 nM
[54]
  GI50: 139 nM
  TGI: 1560 nM
[55]
  GI50: 116 nM
  TGI: 1010 nM
[56]
  GI50: 98.7 nM
[57]
  GI50: 37.2 nM
  TGI: 114 nM

## COc1cc2c(cc1OCCCN1CCN(c3cc(=O)oc4c(C)c(OC)ccc34)CC1)N=C[C@@H]1CCCN1C2=O
[1]
  GI50: 1810 nM
  TGI: > 100000 nM
[2]
  GI50: 456 nM
  TGI: > 20900 nM
[3]
  GI50: 1160 nM
[4]
  GI50: 1590 nM
  TGI: 3790 nM
[5]
  GI50: 1890 nM
  TGI: 5200 nM
[6]
  GI50: 1440 nM
  TGI: 2890 nM
[7]
  GI50: 2350 nM
  TGI: 15600 nM
[8]
  GI50: 2000 nM
  TGI: 10100 nM
[10]
  GI50: 1600 nM
  TGI: 6510 nM
[11]
  GI50: 1860 nM
  TGI: 4550 nM
[12]
  GI50: 2520 nM
  TGI: > 100000 nM
[14]
  GI50: 471 nM
  TGI: 3650 nM
[15]
  GI50: 372 nM
  TGI: 3700 nM
[16]
  GI50: 126 nM
  TGI: 1930 nM
[17]
  GI50: 910 nM
  TGI: > 20900 nM
[18]
  GI50: 1880 nM
  TGI: 4030 nM
[20]
  GI50: 424 nM
  TGI: 1020 nM
[21]
  GI50: 1450 nM
  TGI: > 26400 nM
[22]
  GI50: 2560 nM
  TGI: 8450 nM
[23]
  GI50: 1670 nM
  TGI: > 100000 nM
[24]
  GI50: 329 nM
  TGI: 1810 nM
[25]
  GI50: 1240 nM
  TGI: 2690 nM
[26]
  GI50: 1610 nM
  TGI: 3830 nM
[27]
  GI50: 1580 nM
  TGI: > 100000 nM
[28]
  GI50: 826 nM
  TGI: 6870 nM
[29]
  GI50: 1160 nM
  TGI: 3590 nM
[30]
  GI50: 3060 nM
  TGI: > 37600 nM
[31]
  GI50: 2490 nM
  TGI: > 30400 nM
[58]
  GI50: 1050 nM
  TGI: 9620 nM
[32]
  GI50: 2620 nM
  TGI: > 100000 nM
[33]
  GI50: 1340 nM
  TGI: > 100000 nM
[34]
  GI50: 1360 nM
  TGI: 2870 nM
[35]
  GI50: 1640 nM
  TGI: 10300 nM
[36]
  GI50: 268 nM
  TGI: 1430 nM
[37]
  GI50: 4050 nM
  TGI: > 47300 nM
[38]
  GI50: 10200 nM
  TGI: > 78400 nM
[39]
  GI50: 1210 nM
  TGI: 6960 nM
[40]
  GI50: 214 nM
  TGI: 1320 nM
[41]
  GI50: 935 nM
  TGI: > 100000 nM
[42]
  GI50: 1090 nM
  TGI: 3980 nM
[43]
  GI50: 787 nM
  TGI: > 39700 nM
[44]
  GI50: 1650 nM
  TGI: 9110 nM
[45]
  GI50: 16600 nM
  TGI: > 88500 nM
[46]
  GI50: 2460 nM
  TGI: 7170 nM
[47]
  GI50: 1190 nM
  TGI: 12800 nM
[48]
  GI50: 984 nM
  TGI: 5990 nM
[49]
  GI50: 1170 nM
[50]
  GI50: 1160 nM
  TGI: 8940 nM
[51]
  GI50: 866 nM
  TGI: 3220 nM
[52]
  GI50: 1570 nM
  TGI: 6050 nM
[53]
  GI50: 456 nM
  TGI: 3830 nM
[54]
  GI50: 122 nM
  TGI: 1360 nM
[55]
  GI50: 1730 nM
  TGI: 7970 nM
[56]
  GI50: 248 nM
  TGI: 598 nM
[57]
  GI50: 2020 nM
  TGI: 3960 nM
